Reference: patent US8163795B2, “Chroman derivatives, medicaments and use in therapy” (Marshall Edwards, Inc., priority 2004, dated 2012)
Where two headings read alike, the source gives them in different places.

Experiments:
[1] = tested on: Neonatal foreskin fibroblasts (NFF); test: Proliferation assay (MTT), normal cell toxicity; assay type: cell-based, Human; conditions: Homo sapiens, Fibroblast, read-out: IC50
Method: (§1) The normal cell line NFF (neonatal foreskin fibroblasts) was a sift from Dr. Peter Parsons (Queensland Institute of Medical Research). RK (rabbit kidney) cells were obtained from Miller Whalley (Macquarie University). Both cell lines were cultured in RPMI supplemented with 10% FCS(CSL, Australia), penicillin (100 U/ml), streptomycin ([…]), L-glutamine (2 mM) and sodium bicarbonate (1.2 g/L), and cultured at 37° C. in a humidified atmosphere of 5% CO2.
(§2) IC50 values were determined for each cell line. Cells were seeded in 96-well plates at an appropriate cell density as determined from growth kinetics analysis and cultured for 5 days in the absence and presence of the test compounds. Cell proliferation was assessed after the addition of 20 μl of 3-4,5 dimethylthiazol-2,5-diphenyl tetrazolium bromide (MTT, 2.5 mg/ml in PBS, Sigma) for 3-4 hrs at 37° C. according to manufacturer's instructions. IC50 values were calculated from semi-log plots of % of control proliferation on the y-axis against log dose on the x-axis.

[2] = tested on: rabbit kidney cells (RK); test: Proliferation assay (MTT), normal cell toxicity; assay type: cell-based; conditions: Oryctolagus cuniculus; rabbit kidney cells; read-out: IC50
Method: as §1, §2

[3] = tested on: 4405 melanoma cell line; test: Proliferation assay (MTT); assay type: cell-based; conditions: Table 15; melanoma 4405
Outline: (§3)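 Seed cells at growth-kinetics-derived density; treat with compounds for 5 days at 37° C in humidified 5% CO2; add MTT for 3-4 hrs at 37° C; plot % of control proliferation against log dose to obtain IC50.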

[4] = tested on: A2780 (Ovarian); test: Proliferation assay (MTT); assay type: cell-based; conditions: Homo sapiens, Table 2.1
Outline: as §3

[5] = tested on: CCRF-CEM (Leukemic); test: Proliferation assay (MTT); assay type: cell-based; conditions: Homo sapiens, CCRF-CEM
Outline: as §3

[6] = tested on: DU145 (Prostate); test: Proliferation assay (MTT); assay type: cell-based; conditions: Homo sapiens, DU-145, Table 2.1
Outline: as §3

[7] = tested on: HCT-15 (Colorectal); test: Proliferation assay (MTT); assay type: cell-based; conditions: Homo sapiens; Table 2.1; Colorectal HCT-15
Outline: as §3

[8] = tested on: HT-29 (Colorectal); test: Proliferation assay (MTT); assay type: cell-based; conditions: Homo sapiens, Colorectal HT-29
Outline: as §3

[9] = tested on: HTB-138 (Glioma); test: Proliferation assay (MTT); assay type: cell-based; conditions: Table 2.1; Glioma HTB-138
Outline: as §3

[10] = tested on: IGR-3 (Melanoma); test: Proliferation assay (MTT); assay type: cell-based
Outline: as §3

[11] = tested on: LNCaP (Prostate); test: Proliferation assay (MTT); assay type: cell-based; conditions: Homo sapiens, Table 2.1
Outline: as §3

[12] = tested on: MM96L melanoma cell line; test: Proliferation assay (MTT); assay type: cell-based; conditions: Homo sapiens, Table 15
Outline: as §3

[13] = tested on: PC3 prostate cancer cell line; test: Proliferation assay (MTT); assay type: cell-based
Outline: as §3

[14] = tested on: RM melanoma cell line; test: Proliferation assay (MTT); assay type: cell-based; conditions: Table 15
Outline: as §3

[15] = tested on: SKMe128 melanoma cell line; test: Proliferation assay (MTT); assay type: cell-based; conditions: Table 15
Outline: as §3

[16] = tested on: normal fibroblasts (MRC-5); test: Apoptosis in normal fibroblasts; assay type: cell-based; conditions: same concentration (8 μM) and exposure times (24 and 48 hr) as melanoma cells
Method: Studies were conducted on normal fibroblasts (MRC-5) and TRAIL-sensitive melanoma cells (ME4405 and MEL-RM) using 8 μM of either DHE, or HMC over 24 and 48 hr of exposure (FIG. 9).

[17] = tested on: 4405 melanoma cell line; test: HMC combination with paclitaxel (synergy); assay type: cell-based; conditions: for IC50: Table 10, single agent
Method: as §2
3-D model analysis of the cytotoxic interaction between drug A and drug B enables the representation of predicted inhibitory effect of two drugs in combination in 3 dimensions to reveal actual regions of synergy or antagonism. The 3D synergy plots are based on a theory of “Theretical Additivity” (TA) as outlined by Kanzawa et al (Int. J. Cancer 71, 311-319 (1997)). Theoretical Additivity was calculated from the cytotoxicities of drug A and drug B as monotherapies using the following formula which assumes the drugs are mutually exclusive inhibitors: […]
The TA is calculated for each combination of drug concentrations and subtracted from the observed experimental effect for each combination to give a measurement of synergisitic action.
HMC synergy with paclitaxel was assessed either in combination over 5 days exposure or in sequence (HMC→paclitaxel) against the 4405 melanoma cell line. It was difficult to assess for synergisitic toxicity using a change in IC50 as a measure of synergy due to HMC toxicity as monotherapy (Table 10). […] Evidence of synergy using the HMC-paclitaxel combination was further assessed using the HMC→paclitaxel sequence (24 hr exposure to each compound in sequence) against the melanoma cell line 4405. Using change in IC50 to assess for synergy it was noted that HMC at concentrations of 2 μM markedly chemosensitised the 4405 cells to paclitaxel by >1000 fold (Table 10). HMC-induced chemosensitisation of […] cells to paclitaxel was confirmed using 3D analysis of the data.

[18] = tested on: PGE2; test: Eicosanoid synthesis in LPS-stimulated murine macrophages (RAW 264.7); assay type: cell-based, mouse; conditions: 10 μM; negative values indicate inhibition
Method: (§4) The mouse macrophage cell line RAW 264.7 was cultured in DMEM supplemented with foetal calf serum (FCS), 2 mM glutamine and 50 U/ml penicillin/streptomycin. Subconfluent cells were detached from the flask by gentle scraping and 24-well plates seeded at 5×10^5 cells per well and allowed to adhere for 1 hr. Cells were then treated either test compound at a concentration of 10 μM (in 0.025% DMSO) or vehicle alone, and incubated for 1 hr. LPS 50 ng/ml (LPS—Sigma-Aldrich) was then added. After incubation for 16 hrs, culture media was collected and stored at −80° C. for ecosanoid measurements using enzyme immunometric assays (PGE2 and TXB2—Cayman Chemical).
(§5) Table 16: Percentage change in eicosanoid synthesis after incubating test compound at 10 μM compared with incubation with vehicle alone.

[19] = tested on: TXB2; test: as above; assay type: cell-based, mouse; conditions: 10 μM; negative values indicate inhibition
Method: as §4, §5

COc1ccc(C2c3ccc(O)cc3OCC2c2ccc(O)cc2)cc1 (stereo not drawn) [Compound 1, 3-(4-hydroxyphenyl)-4-(4-methoxyphenyl)chroman-7-ol]
IC50 ([1]; Table 1, Neonatal Foreskin Fibroblasts (Human, NFF)): 86100 ± 7600 nM
IC50 ([1]; NFF): 86000 nM
IC50 [2]: 61000 nM
IC50 [3]: 1460 ± 180 nM
IC50 [4]: 1580 ± 590 nM
IC50 ([5]; Table 2.1, Leukemic CCRF-CEM): 1900 nM
IC50 ([5]; Table 2.2, Leukaemia CCRF-CEM): 2000 ± 970 nM
IC50 [6]: 3780 nM
IC50 [7]: 37800 ± 33000 nM
IC50 ([8]; HT-29, Table 2.1): 3700 ± 1400 nM
IC50 ([8]; HT-29, Table 2.2): 5400 ± 1800 nM
IC50 [9]: 1900 ± 270 nM
IC50 ([10]; Table 2.1, Melanoma IGR-3): 530 ± 20 nM
IC50 ([10]; Table 15, melanoma IgR3): 510 ± 80 nM
IC50 [11]: 4520 nM
IC50 [12]: 1310 ± 380 nM
IC50 ([13]; Table 2.1): 2900 ± 920 nM
IC50 ([13]; Table 2.2): 2500 ± 1000 nM
IC50 [14]: 1400 ± 1600 nM
IC50 [15]: 680 ± 160 nM
induction of apoptosis in normal fibroblasts [16]: do not induce apoptosis
reduction in IC50 in the combination experiment vs paclitaxel monotherapy ([17]; 5-day combination): 30 fold
IC50 ([17]; 120 h, 5 days exposure, read-out: IC50, Combined (monotherapy)): 1260 nM
chemosensitisation of 4405 cells to paclitaxel (change in IC50) ([17]; HMC 2 μM, HMC→paclitaxel sequence): > 1000 fold
Change Factor (HMC first) ([17]; Paclitaxel block, HMC 1 uM 24 hr then paclitaxel 24 hr): 11.00
Change Factor (HMC first) ([17]; Paclitaxel block, HMC 2 uM 24 hr then paclitaxel 24 hr): 106633.75
Change Factor (Combined) ([17]; Paclitaxel block, with HMC 1 uM, 5-day combination): 30.36
Change Factor (Combined) ([17]; Paclitaxel block, with HMC 2 uM, 5-day combination): ?HMC effect
IC50 ([17]; 24 hr exposure, read-out: IC50, 24 hr (monotherapy)): 55500 nM
Change Factor (HMC first) ([17]; upper block of Table 10, HMC 2 uM first, sequence): −1.035
Change Factor (Combined) ([17]; upper block of Table 10, HMC 2 uM, 5-day combination): 5964.400
Percentage change in PGE2 synthesis vs vehicle alone [18]: −33.8%
Percentage change in TXB2 synthesis vs vehicle alone [19]: 0%
